According to patent US7473669B2, “Substituted 4,5-dihydro-1,2,4-triazin-6-ones, 1,2,4-triazin-6-ones, and their use as fungicides” (priority 2005, dated 2009):

Assays:
Assay type in all cases: in vivo
Leptosphaeria nodorum = test: Glume Blotch of Wheat greenhouse one-day protectant test; settings: Parastagonospora nodorum, 24 h; wheat plants, one-day protectant test, 200 ppm application rate; read-out: LEPTNO percent control rating
Pyricularia oryzae = test: whole plant or invertebrate; settings: 24 h, read-out: PYRIOR percent control rating
Phytophthora infestans = test: whole plant or invertebrate; settings: in Solanum lycopersicum, 24 h, read-out: PHYTIN percent control rating, tomato plants, one-day protectant test, 200 ppm application rate
[1] = tested on: Puccinia recondita tritici; test: Leaf Rust of Wheat greenhouse one-day protectant test; settings: 24 h, wheat plants, one-day protectant test, 200 ppm application rate, read-out: PUCCRT percent control rating
Colletotricum lagenarium = test: Cucumber Anthracnose greenhouse one-day protectant test; settings: Cucumis sativus, 24 h, cucumber plants, one-day protectant test, 200 ppm application rate; read-out: COLLLA percent control rating
Erysiphe cichoracaerum = test: Cucumber Powdery Mildew greenhouse one-day protectant test; settings: 24 h, cucumber plants, one-day protectant test, 200 ppm application rate, read-out: ERYSCI percent control rating

## O=C1CNC(c2cccc(Oc3nc4ccc(Cl)cc4s3)c2)=NN1CC(F)(F)F [Compound 27]
Leptosphaeria nodorum
  pest or weed control at 200 ppm: 80 to 100%
Pyricularia oryzae
  pest or weed control at 200 ppm: 80 to 100%
Phytophthora infestans
  pest or weed control at 200 ppm: 0 to 49%
[1]
  pest or weed control at 200 ppm: 80 to 100%
Colletotricum lagenarium
  pest or weed control at 200 ppm: 50 to 79%
Erysiphe cichoracaerum
  pest or weed control at 200 ppm: 0 to 49%

## O=C1CNC(c2cccc(Oc3nnnn3-c3ccccc3)c2)=NN1CC(F)(F)F [Compound 28]
Leptosphaeria nodorum
  pest or weed control at 200 ppm: 50 to 79%
Pyricularia oryzae
  pest or weed control at 200 ppm: 50 to 79%
Phytophthora infestans
  pest or weed control at 200 ppm: 0 to 49%
[1]
  pest or weed control at 200 ppm: 0 to 49%
Colletotricum lagenarium
  pest or weed control at 200 ppm: 0 to 49%
Erysiphe cichoracaerum
  pest or weed control at 200 ppm: 0 to 49%

## O=C1CNC(c2cccc(-c3ccc(Cl)s3)c2)=NN1CC(F)(F)F [Compound 29]
Leptosphaeria nodorum
  pest or weed control at 200 ppm: 80 to 100%
Pyricularia oryzae
  pest or weed control at 200 ppm: 50 to 79%
Phytophthora infestans
  pest or weed control at 200 ppm: 0 to 49%
[1]
  pest or weed control at 200 ppm: 80 to 100%
Colletotricum lagenarium
  pest or weed control at 200 ppm: 0 to 49%
Erysiphe cichoracaerum
  pest or weed control at 200 ppm: 0 to 49%

## O=C1CNC(c2cccc(-c3ccc(Oc4ccccc4)cc3)c2)=NN1CC(F)(F)F [Compound 30]
Leptosphaeria nodorum
  pest or weed control at 200 ppm: 50 to 79%
Pyricularia oryzae
  pest or weed control at 200 ppm: 0 to 49%
Phytophthora infestans
  pest or weed control at 200 ppm: 0 to 49%
[1]
  pest or weed control at 200 ppm: 50 to 79%
Colletotricum lagenarium
  pest or weed control at 200 ppm: 0 to 49%
Erysiphe cichoracaerum
  pest or weed control at 200 ppm: 0 to 49%

## O=C1CNC(c2cccc(Oc3ncccn3)c2)=NN1CC(F)(F)F [Compound 31]
Leptosphaeria nodorum
  pest or weed control at 200 ppm: 50 to 79%
Pyricularia oryzae
  pest or weed control at 200 ppm: 0 to 49%
Phytophthora infestans
  pest or weed control at 200 ppm: 0 to 49%
[1]
  pest or weed control at 200 ppm: 0 to 49%
Colletotricum lagenarium
  pest or weed control at 200 ppm: 0 to 49%
Erysiphe cichoracaerum
  pest or weed control at 200 ppm: 0 to 49%

## CNc1cc(F)nc(Oc2cccc(C3=NN(CC(F)(F)F)C(=O)CN3)c2)n1 [Compound 32]
Leptosphaeria nodorum
  pest or weed control at 200 ppm: 80 to 100%
Pyricularia oryzae
  pest or weed control at 200 ppm: 0 to 49%
Phytophthora infestans
  pest or weed control at 200 ppm: 0 to 49%
[1]
  pest or weed control at 200 ppm: 50 to 79%
Colletotricum lagenarium
  pest or weed control at 200 ppm: 0 to 49%
Erysiphe cichoracaerum
  pest or weed control at 200 ppm: 0 to 49%

## O=C1CNC(c2cccc(Oc3ccnc(Cl)c3)c2)=NN1CC(F)(F)F [Compound 33]
Leptosphaeria nodorum
  pest or weed control at 200 ppm: 50 to 79%
Pyricularia oryzae
  pest or weed control at 200 ppm: 0 to 49%
Phytophthora infestans
  pest or weed control at 200 ppm: 0 to 49%
[1]
  pest or weed control at 200 ppm: 80 to 100%
Colletotricum lagenarium
  pest or weed control at 200 ppm: 0 to 49%
Erysiphe cichoracaerum
  pest or weed control at 200 ppm: 0 to 49%

## O=C1CNC(c2ccc(-c3cc(Cl)cc(Cl)c3)nc2)=NN1CCF [Compound 34]
Leptosphaeria nodorum
  pest or weed control at 200 ppm: 80 to 100%
Pyricularia oryzae
  pest or weed control at 200 ppm: 80 to 100%
Phytophthora infestans
  pest or weed control at 200 ppm: 50 to 79%
[1]
  pest or weed control at 200 ppm: 80 to 100%
Colletotricum lagenarium
  pest or weed control at 200 ppm: 50 to 79%
Erysiphe cichoracaerum
  pest or weed control at 200 ppm: 0 to 49%

## O=C1CNC(c2ccc(-c3ccc(C(F)(F)F)cc3)nc2)=NN1CCF [Compound 35]
Leptosphaeria nodorum
  pest or weed control at 200 ppm: 80 to 100%
Pyricularia oryzae
  pest or weed control at 200 ppm: 80 to 100%
Phytophthora infestans
  pest or weed control at 200 ppm: 50 to 79%
[1]
  pest or weed control at 200 ppm: 80 to 100%
Colletotricum lagenarium
  pest or weed control at 200 ppm: 50 to 79%
Erysiphe cichoracaerum
  pest or weed control at 200 ppm: 0 to 49%

## Cc1cc(C)cc(C2=NN(CC(F)(F)F)C(=O)C(SCc3ccccc3)N2)c1 (stereo not drawn) [Compound 36]
Leptosphaeria nodorum
  pest or weed control at 200 ppm: 80 to 100%
Pyricularia oryzae
  pest or weed control at 200 ppm: 80 to 100%
Phytophthora infestans
  pest or weed control at 200 ppm: 0 to 49%
[1]
  pest or weed control at 200 ppm: 80 to 100%
Colletotricum lagenarium
  pest or weed control at 200 ppm: 80 to 100%
Erysiphe cichoracaerum
  pest or weed control at 200 ppm: 0 to 49%

## Cc1cc(C)cc(C2=NN(CC(F)(F)F)C(=O)C(SC3CCCCC3)N2)c1 (stereo not drawn) [Compound 37]
Leptosphaeria nodorum
  pest or weed control at 200 ppm: 80 to 100%
Pyricularia oryzae
  pest or weed control at 200 ppm: 80 to 100%
Phytophthora infestans
  pest or weed control at 200 ppm: 0 to 49%
[1]
  pest or weed control at 200 ppm: 80 to 100%
Colletotricum lagenarium
  pest or weed control at 200 ppm: 80 to 100%
Erysiphe cichoracaerum
  pest or weed control at 200 ppm: 0 to 49%

## Cc1cc(C)cc(C2=NN(CC(F)(F)F)C(=O)C(SCCO)N2)c1 (stereo not drawn) [Compound 38]
Leptosphaeria nodorum
  pest or weed control at 200 ppm: 80 to 100%
Pyricularia oryzae
  pest or weed control at 200 ppm: 80 to 100%
Phytophthora infestans
  pest or weed control at 200 ppm: 0 to 49%
[1]
  pest or weed control at 200 ppm: 80 to 100%
Colletotricum lagenarium
  pest or weed control at 200 ppm: 0 to 49%
Erysiphe cichoracaerum
  pest or weed control at 200 ppm: 0 to 49%

## Cc1cc(C)cc(C2=NN(CC(F)(F)F)C(=O)C(SCCCCl)N2)c1 (stereo not drawn) [Compound 39]
Leptosphaeria nodorum
  pest or weed control at 200 ppm: 80 to 100%
Pyricularia oryzae
  pest or weed control at 200 ppm: 80 to 100%
Phytophthora infestans
  pest or weed control at 200 ppm: 0 to 49%
[1]
  pest or weed control at 200 ppm: 80 to 100%
Colletotricum lagenarium
  pest or weed control at 200 ppm: 80 to 100%
Erysiphe cichoracaerum
  pest or weed control at 200 ppm: 0 to 49%

## Cc1cc(C)cc(C2=NN(CC(F)(F)F)C(=O)C(OCc3ccccc3)N2)c1 (stereo not drawn) [Compound 40]
Leptosphaeria nodorum
  pest or weed control at 200 ppm: 80 to 100%
Pyricularia oryzae
  pest or weed control at 200 ppm: 80 to 100%
Phytophthora infestans
  pest or weed control at 200 ppm: 0 to 49%
[1]
  pest or weed control at 200 ppm: 80 to 100%
Colletotricum lagenarium
  pest or weed control at 200 ppm: 80 to 100%
Erysiphe cichoracaerum
  pest or weed control at 200 ppm: 0 to 49%

## Cc1cc(C)cc(C2=NN(CC(F)(F)F)C(=O)C(OC3CCCCC3)N2)c1 (stereo not drawn) [Compound 41]
Leptosphaeria nodorum
  pest or weed control at 200 ppm: 80 to 100%
Pyricularia oryzae
  pest or weed control at 200 ppm: 80 to 100%
Phytophthora infestans
  pest or weed control at 200 ppm: 0 to 49%
[1]
  pest or weed control at 200 ppm: 80 to 100%
Colletotricum lagenarium
  pest or weed control at 200 ppm: 50 to 79%
Erysiphe cichoracaerum
  pest or weed control at 200 ppm: 0 to 49%

## Cc1cc(C)cc(C2=NN(CC(F)(F)F)C(=O)C(SCC(=O)O)N2)c1 (stereo not drawn) [Compound 42]
Leptosphaeria nodorum
  pest or weed control at 200 ppm: 80 to 100%
Pyricularia oryzae
  pest or weed control at 200 ppm: 80 to 100%
Phytophthora infestans
  pest or weed control at 200 ppm: 0 to 49%
[1]
  pest or weed control at 200 ppm: 80 to 100%
Colletotricum lagenarium
  pest or weed control at 200 ppm: 80 to 100%
Erysiphe cichoracaerum
  pest or weed control at 200 ppm: 0 to 49%

## Cc1cc(C2=NN(CC(F)(F)F)C(=O)C(SC3CCCCC3)N2)ccc1Br (stereo not drawn) [Compound 43]
Leptosphaeria nodorum
  pest or weed control at 200 ppm: 80 to 100%
Pyricularia oryzae
  pest or weed control at 200 ppm: 80 to 100%
Phytophthora infestans
  pest or weed control at 200 ppm: 80 to 100%
[1]
  pest or weed control at 200 ppm: 80 to 100%
Colletotricum lagenarium
  pest or weed control at 200 ppm: 80 to 100%
Erysiphe cichoracaerum
  pest or weed control at 200 ppm: 0 to 49%

## O=C1C(SC2CCCCC2)NC(c2cc(Br)cc(Br)c2)=NN1CC(F)(F)F (stereo not drawn) [Compound 44]
Leptosphaeria nodorum
  pest or weed control at 200 ppm: 80 to 100%
Pyricularia oryzae
  pest or weed control at 200 ppm: 80 to 100%
Phytophthora infestans
  pest or weed control at 200 ppm: 80 to 100%
[1]
  pest or weed control at 200 ppm: 80 to 100%
Colletotricum lagenarium
  pest or weed control at 200 ppm: 80 to 100%
Erysiphe cichoracaerum
  pest or weed control at 200 ppm: 0 to 49%

## O=C1C(SC2CCCCC2)NC(c2ccc(Oc3ccccc3)c(-c3ccccc3)c2)=NN1CC(F)(F)F (stereo not drawn) [Compound 45]
Leptosphaeria nodorum
  pest or weed control at 200 ppm: 80 to 100%
Pyricularia oryzae
  pest or weed control at 200 ppm: 80 to 100%
Phytophthora infestans
  pest or weed control at 200 ppm: 0 to 49%
[1]
  pest or weed control at 200 ppm: 50 to 79%
Colletotricum lagenarium
  pest or weed control at 200 ppm: 50 to 79%
Erysiphe cichoracaerum
  pest or weed control at 200 ppm: 0 to 49%

## O=C1C(SC2CCCCC2)NC(c2cccc(/C=C\c3ccccc3)c2)=NN1CC(F)(F)F (stereo not drawn) [Compound 47]
Leptosphaeria nodorum
  pest or weed control at 200 ppm: 80 to 100%
Pyricularia oryzae
  pest or weed control at 200 ppm: 80 to 100%
Phytophthora infestans
  pest or weed control at 200 ppm: 0 to 49%
[1]
  pest or weed control at 200 ppm: 80 to 100%
Colletotricum lagenarium
  pest or weed control at 200 ppm: 80 to 100%
Erysiphe cichoracaerum
  pest or weed control at 200 ppm: 80 to 100%

## O=C1C(SC2CCCCC2)NC(c2ccc(Br)s2)=NN1CC(F)(F)F (stereo not drawn) [Compound 50]
Leptosphaeria nodorum
  pest or weed control at 200 ppm: 80 to 100%
Pyricularia oryzae
  pest or weed control at 200 ppm: 80 to 100%
Phytophthora infestans
  pest or weed control at 200 ppm: 0 to 49%
[1]
  pest or weed control at 200 ppm: 80 to 100%
Colletotricum lagenarium
  pest or weed control at 200 ppm: 50 to 79%
Erysiphe cichoracaerum
  pest or weed control at 200 ppm: 0 to 49%

## Cc1ccccc1-c1cccc(C2=NN(CC(F)(F)F)C(=O)C(SC3CCCCC3)N2)c1 (stereo not drawn) [Compound 51]
Leptosphaeria nodorum
  pest or weed control at 200 ppm: 80 to 100%
Pyricularia oryzae
  pest or weed control at 200 ppm: 80 to 100%
Phytophthora infestans
  pest or weed control at 200 ppm: 0 to 49%
[1]
  pest or weed control at 200 ppm: 80 to 100%
Colletotricum lagenarium
  pest or weed control at 200 ppm: 50 to 79%
Erysiphe cichoracaerum
  pest or weed control at 200 ppm: 0 to 49%

## O=C1C(SC2CCCCC2)NC(c2cccc(-c3ccccc3OC(F)(F)F)c2)=NN1CC(F)(F)F (stereo not drawn) [Compound 52]
Leptosphaeria nodorum
  pest or weed control at 200 ppm: 80 to 100%
Pyricularia oryzae
  pest or weed control at 200 ppm: 80 to 100%
Phytophthora infestans
  pest or weed control at 200 ppm: 0 to 49%
[1]
  pest or weed control at 200 ppm: 80 to 100%
Colletotricum lagenarium
  pest or weed control at 200 ppm: 0 to 49%
Erysiphe cichoracaerum
  pest or weed control at 200 ppm: 0 to 49%
